# Test results taken from PubChem BioAssay AID2060496 (Molecular Pharmacology Branch, DTP, NCI, 2025).
# Tested on: 276233-004-R-J1-PDC complex spheroid viability
# Test: Anticancer human tumor 276233-004-R-J1-PDC patient-derived colon adenocarcinoma cell line growth inhibition [GQUAD]
# Settings: for IC50: curve of first compound; for viability, T/C: stronger effect = lower value
# Description: DNA G-quadruplex Stabilizer Agents in Combinations in Complex Spheroids
# A high-throughput screen of multi-cell type tumor spheroids was designed to identify active combinations of DNA G-quadruplex stabilizer agents and targeted small molecules. Complex spheroids include a stromal component modeled by human endothelial cells (HUVEC) and fibroblasts modeled by human mesenchymal stem cells (MSCs). The concentration ranges selected for each drug and investigational agent were based upon clinically achievable concentrations if the clinical Cmax of the agent was known.
# Compounds. The drugs and investigational agents: pidnarulex (CX-5461; NSC782164), APTO-253 (NSC789042), BRACO-19 (NSC847499), peposertib (NSC802822), ceralasertib (NSC780249), elimusertib (NSC800525), camonsertib (NSC841442), AZD-1390 (NSC803789), olaparib (NSC753686), talazoparib (NSC767125), ART-558 (NSC835418), sotorasib (NSC818433), MRTX-1133 (NSC836407), SN-38 (NSC673596), topotecan (NSC609699), etoposide (NSC141540), doxorubicin (NSC123127), gemcitabine (NSC613327), 5-fluorouracil (NSC19893), paclitaxel (NSC125973), vemurafenib (NSC761431), panobinostat (NSC761190), R-306465 (JNJ-16241199; NSC773264), adavosertib (NSC754352), TP-3654 (NSC805149), carboplatin (NSC241240), KSQ-4279 (NSC840948), and staurosporine (NSC755774) were obtained from the National Cancer Institute (NCI) Developmental Therapeutics Program Chemical Repository (34). The FDA-approved anticancer drug set is available from the NCI Developmental Therapeutics Program. […] The stock solutions were prepared in dimethyl sulfoxide (DMSO, Sigma-Aldrich, St. Louis, MO, cat. D2650) at 800-fold the tested concentration and stored at -70 degrees C prior to their use. All drugs and investigational agents were tested over a range starting from a high concentration at or near the clinical Cmax and decreasing in half-log increments. If the clinical Cmax for an agent had not been determined, the highest concentration tested was 10 microM.
# 2.3 Cell Culture. All cells were maintained in an incubator at 37 degrees C and 5% CO2 with 95% humidity. The PDC lines were cultured according to standard operating procedures established by the NCI PDMR. All PDCs were thawed and cultured in Matrigel-coated flasks prepared with a working solution of 1X Ham's F-12 nutrient mix, without supplementation (Invitrogen, cat. 11765054), 100 U/mL penicillin-streptomycin (Invitrogen, cat. 15140122), and 2.5% Matrigel (Corning Inc., cat. 354248) for the first three passages. The 857933-349-R-J2-PDC line was cultured in 6C/Colon 1B media, which includes advanced DMEM/F-12 (Thermo Fisher Scientific, cat. 12634028), 10 mM HEPES (Thermo Fisher Scientific, cat. 15630080), 1X GlutaMAX supplement (Thermo Fisher Scientific, cat. 35050061), 0.1 mg/mL primocin (InvivoGen, cat. ant-pm-2), 10% defined fetal bovine serum, heat inactivated (HyClone Laboratories Inc., cat. SH30070.03HI), 50% L-WRN conditioned media (ATCC, cat. CRL-3276), 1.25 mM N-Acetyl-L-cysteine (Sigma-Aldrich, cat. A9165), 10 mM nicotinamide (Sigma-Aldrich, cat. N0636), 1X B-27 supplement (Thermo Fisher Scientific, cat. 17504044), 1X N-2 supplement (Thermo Fisher Scientific, cat. 17502048), 10 microM Y-27632 dihydrochloride (Tocris Bioscience, cat. 1254), and 50 ng/mL human EGF recombinant protein (Thermo Fisher Scientific, cat. PHG0311). The 485176-168-R4-J1-PDC line was cultured in Panc media, which includes all 6C/Colon 1B media components plus 100 ng/mL human FGF-10 (Thermo Fisher Scientific, cat. 100-26), 500 nM SB-431542 (Selleckchem, cat. S1067), and gastrin (Tocris, cat. 3006).
# […]
# [1] = second compound 0.0316 µM, first compound 0.0316 µM
# [2] = second compound 0.0316 µM, first compound 0.316 µM
# [3] = second compound 0.1 µM, first compound 0.0316 µM
# [4] = second compound 0.1 µM, first compound 0.316 µM
# [5] = second compound 0.316 µM, first compound 0.0316 µM
# [6] = second compound 0.316 µM, first compound 0.316 µM
# [7] = second compound 1 µM, first compound 0.0316 µM
# [8] = second compound 1 µM, first compound 0.316 µM
# [9] = second compound 3.16 µM, first compound 0.0316 µM
# [10] = second compound 3.16 µM, first compound 0.316 µM
# [11] = second compound 10 µM, first compound 0.0316 µM
# [12] = second compound 10 µM, first compound 0.316 µM
# 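Also: spheroids exposed to drugs for seven days.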
# 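For viability, T/C in this document: 100% = DMSO vehicle control viability.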
smiles,measurement,setting,value
Cn1ncnc1[C@H]1c2n[nH]c(=O)c3cc(F)cc(c23)N[C@@H]1c1ccc(F)cc1 + CN(C)c1ccc(Nc2c3ccc(NC(=O)CCN4CCCC4)cc3nc3cc(NC(=O)CCN4CCCC4)ccc23)cc1,IC50,second compound 0.0316 µM,> 316 nM
same,IC50,second compound 0.1 µM,> 316 nM
same,IC50,second compound 0.316 µM,> 316 nM
same,IC50,second compound 1 µM,> 316 nM
same,IC50,second compound 3.16 µM,> 316 nM
same,IC50,second compound 10 µM,< 0.999 nM
same,"viability, T/C","second compound 0.0316 µM, first compound 0.000999 µM",81.5%
same,"viability, T/C","second compound 0.0316 µM, first compound 0.00316 µM",96.6%
same,"viability, T/C","second compound 0.0316 µM, first compound 0.00999 µM",85.2%
same,"viability, T/C",[1],88.2%
same,"viability, T/C","second compound 0.0316 µM, first compound 0.0999 µM",94.6%
same,"viability, T/C",[2],97.8%
same,"viability, T/C","second compound 0.1 µM, first compound 0.000999 µM",90.3%
same,"viability, T/C","second compound 0.1 µM, first compound 0.00316 µM",81.3%
same,"viability, T/C","second compound 0.1 µM, first compound 0.00999 µM",90.7%
same,"viability, T/C",[3],84.7%
same,"viability, T/C","second compound 0.1 µM, first compound 0.0999 µM",70.4%
same,"viability, T/C",[4],64.3%
same,"viability, T/C","second compound 0.316 µM, first compound 0.000999 µM",68%
same,"viability, T/C","second compound 0.316 µM, first compound 0.00316 µM",62.4%
same,"viability, T/C","second compound 0.316 µM, first compound 0.00999 µM",69.6%
same,"viability, T/C",[5],61.3%
same,"viability, T/C","second compound 0.316 µM, first compound 0.0999 µM",61.9%
same,"viability, T/C",[6],67.4%
same,"viability, T/C","second compound 1 µM, first compound 0.000999 µM",57.5%
same,"viability, T/C","second compound 1 µM, first compound 0.00316 µM",51%
same,"viability, T/C","second compound 1 µM, first compound 0.00999 µM",42.3%
same,"viability, T/C",[7],58.1%
same,"viability, T/C","second compound 1 µM, first compound 0.0999 µM",48%
same,"viability, T/C",[8],52.8%
same,"viability, T/C","second compound 3.16 µM, first compound 0.000999 µM",62.4%
same,"viability, T/C","second compound 3.16 µM, first compound 0.00316 µM",60.7%
same,"viability, T/C","second compound 3.16 µM, first compound 0.00999 µM",54.5%
same,"viability, T/C",[9],60.7%
same,"viability, T/C","second compound 3.16 µM, first compound 0.0999 µM",59.9%
same,"viability, T/C",[10],52.7%
same,"viability, T/C","second compound 10 µM, first compound 0.000999 µM",47.2%
same,"viability, T/C","second compound 10 µM, first compound 0.00316 µM",43.1%
same,"viability, T/C","second compound 10 µM, first compound 0.00999 µM",55.8%
same,"viability, T/C",[11],47.6%
same,"viability, T/C","second compound 10 µM, first compound 0.0999 µM",57.1%
same,"viability, T/C",[12],54.2%
O=C(c1cc(Cc2n[nH]c(=O)c3ccccc23)ccc1F)N1CCN(C(=O)C2CC2)CC1 + CN(C)c1ccc(Nc2c3ccc(NC(=O)CCN4CCCC4)cc3nc3cc(NC(=O)CCN4CCCC4)ccc23)cc1,IC50,second compound 0.0316 µM,> 10000 nM
same,IC50,second compound 0.1 µM,> 10000 nM
same,IC50,second compound 0.316 µM,> 10000 nM
same,IC50,second compound 1 µM,> 10000 nM
same,IC50,second compound 3.16 µM,> 10000 nM
same,IC50,second compound 10 µM,< 31.6 nM
same,"viability, T/C",[1],76.4%
same,"viability, T/C","second compound 0.0316 µM, first compound 0.1 µM",83.4%
same,"viability, T/C",[2],91.8%
same,"viability, T/C","second compound 0.0316 µM, first compound 1 µM",125%
same,"viability, T/C","second compound 0.0316 µM, first compound 3.16 µM",77.4%
same,"viability, T/C","second compound 0.0316 µM, first compound 10 µM",82%
same,"viability, T/C",[3],98.9%
same,"viability, T/C","second compound 0.1 µM, first compound 0.1 µM",100%
same,"viability, T/C",[4],97.6%
same,"viability, T/C","second compound 0.1 µM, first compound 1 µM",84.4%
same,"viability, T/C","second compound 0.1 µM, first compound 3.16 µM",76%
same,"viability, T/C","second compound 0.1 µM, first compound 10 µM",88.1%
same,"viability, T/C",[5],75.5%
same,"viability, T/C","second compound 0.316 µM, first compound 0.1 µM",73.8%
same,"viability, T/C",[6],69.5%
same,"viability, T/C","second compound 0.316 µM, first compound 1 µM",65%
same,"viability, T/C","second compound 0.316 µM, first compound 3.16 µM",81.4%
same,"viability, T/C","second compound 0.316 µM, first compound 10 µM",68.6%
same,"viability, T/C",[7],71.4%
same,"viability, T/C","second compound 1 µM, first compound 0.1 µM",55.4%
same,"viability, T/C",[8],49.8%
same,"viability, T/C","second compound 1 µM, first compound 1 µM",52.9%
same,"viability, T/C","second compound 1 µM, first compound 3.16 µM",52%
same,"viability, T/C","second compound 1 µM, first compound 10 µM",55.5%
same,"viability, T/C",[9],52.7%
same,"viability, T/C","second compound 3.16 µM, first compound 0.1 µM",53.4%
same,"viability, T/C",[10],52.1%
same,"viability, T/C","second compound 3.16 µM, first compound 1 µM",55.6%
same,"viability, T/C","second compound 3.16 µM, first compound 3.16 µM",48.5%
same,"viability, T/C","second compound 3.16 µM, first compound 10 µM",53.1%
same,"viability, T/C",[11],41.7%
same,"viability, T/C","second compound 10 µM, first compound 0.1 µM",63.3%
same,"viability, T/C",[12],48.9%
same,"viability, T/C","second compound 10 µM, first compound 1 µM",57%
same,"viability, T/C","second compound 10 µM, first compound 3.16 µM",55.2%
same,"viability, T/C","second compound 10 µM, first compound 10 µM",67.3%
